Laboratory results from patent publication US11473055B2, “Virus-free cell lines and methods for obtaining same” (Glycobac, LLC, priority 2015, dated 2022).

What was measured:
Sf-rhabdovirus [1] = assay: Sf-rhabdovirus RT-PCR/nested PCR of single Sf9 cell subclones isolated by limiting dilution and treated with antiviral drugs; format: cell-based, Spodoptera frugiperda; conditions: single Sf9 cell subclone, 10 μg/ml, about a month (FIG. 2B)
Method: Example 3. Exemplary method for obtaining an established Sf cell line characterized by a lack of virus. […] This exemplary embodiment comprised isolating single Sf9 cells by limiting dilution, then treating the isolated cell subclones with antiviral drugs. […] The cells were cultured for about a month with ad hoc amplification to produce progressively larger cultures and, after achieving the 25 cm^2 flask level, samples were tested for Sf-rhabdovirus contamination by PCR, as described in Example 4. A clone lacking Sf-rhabdovirus contamination (FIG. 2B) was transferred to media lacking antiviral drugs, designated Sf-RVN passage zero (PO) and, at P2, transferred to a shake-flask culture in serum-free ESF 921 medium and subsequently maintained in this culture medium and format.
Example 4. Sf-rhabdovirus-specific Reverse Transcription-PCR (RT-PCR)/nested PCR. […] One μL of each primary PCR (RT-PCR) was then used as the template for secondary PCR's (RT-PCR/nested PCR) under the same conditions, except the primers were nested Sf-rhabdovirus-specific primers Mono-1i (SEQ ID NO: 7) and Mono-2i (SEQ ID NO: 8).

Tn-nodavirus = Tn-nodavirus RT-PCR/nested PCR of single TN-368 cell subclones treated with ribavirin; format: cell-based, Trichoplusia ni; conditions: single TN-368 cell subclone, 200 μg/mL, about a month (FIG. 14)
Method: Example 15. Exemplary method for obtaining an established T. ni cell line that lacks virus. After discovering polyclonal TN-368 cell cultures treated with antiviral drug cocktails remained Tn-nodavirus-positive, we employed a disclosed method for obtaining a virus-free cell line. […] The first culture composition was cultured for about a month with ad hoc amplification to produce progressively larger cultures and, after achieving the 25 cm^2 flask level, samples were tested for Tn-nodavirus by RT-PCR, followed by nested PCR, as described in Example 16. […] The clone, designated Tn-NVN passage zero (PO), was adapted to serum-free ESF 921 medium and grown in suspension. The Tn-NVN cell line was subsequently maintained in this second culture composition and growth format.

Sf-rhabdovirus [2] = test system: Sf-rhabdovirus

| Compound | Sf-rhabdovirus RNA by RT-PCR followed by nested PCR (Sf-rhabdovirus [1]) | Tn-nodavirus RNA by RT-PCR followed by nested PCR (Tn-nodavirus) | Sf-rhabdovirus RNA by RT-PCR (Sf-rhabdovirus [2]; polyclonal Sf9 cells, 100 μg/ml, about a month, still in presence of drug (FIG. 1A)) | Sf-rhabdovirus RNA by RT-PCR/nested PCR after transfer to drug-free medium (Sf-rhabdovirus [2]; ribavirin-treated Sf9 cells transferred to culture medium lacking antiviral drugs (FIG. 1B)) |
| --- | --- | --- | --- | --- |
| O=c1cnn([C@@H]2O[C@H](CO)[C@@H](O)[C@H]2O)c(=O)[nH]1 [6-azauridine] | negative for Sf-rhabdovirus contamination | – | – | – |
| NC(=O)c1ncn([C@@H]2O[C@H](CO)[C@@H](O)[C@H]2O)n1 [ribavirin] | – | lacking Tn-nodavirus | no RT-PCR-detectable Sf-rhabdovirus | reverted to the Sf-rhabdovirus-positive phenotype |
